Data taken from patent EP0751947B1, “GLUCOSIDIC DERIVATIVES OF N-ACYL ALKYLAMINES EXERTING NEUROPROTECTIVE, NEUROTROPHIC AND ANTI-INFLAMMATORY ACTION, USEFUL IN ACUTE AND CHRONIC DISORDERS OF THE CENTRAL NERVOUS SYSTEM CONNECTED WITH EXCITOTOXICITY” (LIFEGROUP S.p.A., priority 1994, dated 1995).

How the values were obtained:
granule cells = experiment: neuroprotective effect against Excitatory Amino Acids (L-glutamic acid)-induced neuronal death in vitro, cell survival by MTT; type: cell-based, mouse; conditions: for survived cells (%): A: Glu 500 µM, 5 min, incubated 24 hrs; for cytoprotection against Glu neurotoxicity: result in words, Glu 500 µM for 5 min, Table 5; for Survived Cells: co-treatment
Experimental: The compounds being evaluated, referred to as No. 1, 2, 3, 4, 5, 9 and 10 (with reference to the molecules whose syntheses have been described by way of example), Diltiazem, MK 801 and monosialoganglioside GM1, were solubilized in Locke's solution and added to the culture mediums at the desired concentrations according to different treatment schedule indicated in the Tables, with a view to checking: • dose-effect relationship; • time-effect relationship vs. incubation time (start and duration) and exposure to neurotoxin.
Granule cell cultures were prepared from post natal day 8-9 mouse Balb-6 cerebellum. The cells were suspended in EBM + 2mM L-glutamine, 100 U/ml penicillin, 50 µg/l gentamicin, 25 mM KCl and 10% fetal calf serum, plated on polylysine substrate, cultured for 8-10 days, and exposed to: i) L-glutamic acid (100 µM) at room temperature for 30-40 min. ii) L-glutamic acid (500 µM) at room temperature for 5 min.
The compounds being evaluated were incubated at different times (2 hrs before and at the same time as exposure) or for different times ranging from 5 to 60 minutes after exposure to L-glutamic acid. The cultures were then brought back to the original medium and the number of survived cells was assessed by colorimetric method (MTT) 24 hours after excitotoxic stimulation.

[1] = solubility in organic solvents; conditions: ethanol and dmso, organic solvent or mixture
RBL-2H3 cells = experiment: [3H]serotonin release assay in DNP-HSA stimulated RBL-2H3 cells; type: cell-based, Rat; conditions: co-treatment with DNP-HSA, 15 min; 100 µM or 60 µM (not assigned per compound)
Experimental: The compounds under evaluation as per Ex. 1, 3, 4, and 9 were dissolved in DMSO 0.2%, while the compound of Ex. 6 was dissolved in DMSO 1%, and they were added at the desired concentration of 100 µM or 60 µM.
Rat basophil leukemia cells of the secreting subline 2H3 were grown in stationary cultures at 37°C in Eagle's minimal essential medium supplemented to contain 2mM L-glutamine, 100 IU/ml penicillin and 20% (v/v) heat-inactivated fetal calf serum (FCS). Cells were passed twice a week.
A mouse monoclonal IgE which is specific for dinitrophenol (DNP) haptens (clone SPE-7; Sigma) was used. Dinitrophenylated human serum albumin (DNP-HSA) was employed as the triggering agent in these experiments. The level of conjunction was 30-40 moles of DNP per mole of albumin (Sigma). […] The culture supernatants were then collected in Eppendorf tubes, centrifuged (4 min, 3000 rpm) and 50 µl aliquots counted by standard liquid scintillation techniques. The cellular contents of each well were solubilized with 100 µl of 1% Triton X-100 in PBS, and a 50 µl aliquot counted as above. The percent of [3H]serotonin release was calculated.
Background (spontaneous) release was normally < 5 % of the total radioactivity incorporated, and was always substracted from the stimulated release value ("net" release).

solubility in water = conditions: for solubility: hot water
cerebellar granule cells = experiment: protection against apoptotic neuronal cell death induced by low potassium (KCl 5mM), MTT assay; type: cell-based, Mouse; conditions: compound 100 µM in DMSO 0.2%, MTT 24 hrs later
Experimental: The compounds as in Ex.3, 5, 8, 9 and 11 and GM1 were solubilized in DMSO 0.2% and added to the cells at the desired concentration.
Mouse (Balb 6, 8-9 post-natal day) cerebellar granule cells were plated in basal Eagle medium (BEM) + 10% fetal calf serum + 25 […] + 2 mM glutamine + 100 µg/ml gentamicine dishes and coated with poly/L lisine. Culture medium was replaced with serum-free medium 6-9 days after plating. […] Neuronal cell survival was measured 24 hrs later by MTT assay.

physchem [2] = experiment: physchem
physchem [3] = conditions: hot water
[4] = compound 10 µM added 0 min after Glu removal

With `COc1ccc([C@@H]2Sc3ccccc3N(CCN(C)C)C(=O)[C@@H]2OC(C)=O)cc1` [Diltiazem, reference compound] the “survived cells (%)” value (granule cells; [4]) was 35% and the “cytoprotection against Glu neurotoxicity” value (granule cells) was “does not show any significant action”.

For `CCCCCCCCCCCCCCCC(=O)NCCO[C@@H]1O[C@H](CO)[C@@H](O)[C@H](O)[C@H]1O` [Example 1, 2-O-(β-D-glucopyranosyl)-N-palmitoylaminoethanol], the solubility [1] was greater than 10000 µg/mL, the “% of inhibition (serotonin net release inhibition)” value (RBL-2H3 cells) was 57% and the solubility in water (solubility in water; at room temperature, result in words) was “poorly soluble”. The solubility (solubility in water) was greater than 10000 µg/mL, the “survived cells (%) pre.” value (granule cells; Glu 100 µM, 40 min, room temperature, compound 100 µM added 2 hrs before and then removed, survival after 24 hrs) was 44% and the “survived cells (%) co.” value (granule cells; Glu 100 µM, 40 min, room temperature, compound 100 µM added at the same time, survival after 24 hrs) was 57%. The “survived cells (%) pre.+ co.” value (granule cells; Glu 100 µM, 40 min, room temperature, compound 100 µM, 2 hrs before and at the same time, survival after 24 hrs) was 35%, the “Survived Cells” value (granule cells; Glu 100 µM, room temperature, 40 min, compound 10 µM) was 22% and the “Survived Cells” value (granule cells; Glu 100 µM, room temperature, 40 min, compound 25 µM) was 35%. The “Survived Cells” value (granule cells; Glu 100 µM, room temperature, 40 min, compound 50 µM) was 48%, the “Survived Cells” value (granule cells; Glu 100 µM, room temperature, 40 min, compound 100 µM) was 67% and the “Survived Cells” value (granule cells; Glu 100 µM, room temperature, 40 min, compound 200 µM) was 90%.

In the case of `O=C(NCCO[C@@H]1O[C@H](CO)[C@H](O)[C@H](O)[C@H]1O)c1ccccc1` [Example 6, 2-0-(β-D-galactopyranosyl)-N-benzoyl-aminoethanol], the solubility [1] was greater than 10000 µg/mL, the “% of inhibition (serotonin net release inhibition)” value (RBL-2H3 cells) was 54% and the solubility (solubility in water) was greater than 10000 µg/mL.

In the case of `CCCCCCCCCC(=O)NCCO[C@@H]1O[C@H](CO)[C@@H](O)[C@H](O)[C@H]1O` [Example 8, 2-0-(β-D-glucopyranosyl)-N-decanoyl-aminoethanol], the “Cell survival (%)” value (cerebellar granule cells) was 51%, the solubility [1] was greater than 10000 µg/mL and the solubility (solubility in water) was greater than 10000 µg/mL.

For `CCCCCCCCCCCCCCCCCC(=O)NCCO[C@@H]1O[C@H](CO)[C@@H](O)[C@H](O)[C@H]1O` [Example 11, 2-0-(β-D-glucopyranosyl)-N-stearoyl-aminoethanol], the “Cell survival (%)” value (cerebellar granule cells) was 51% and the solubility (physchem [2]; dmso and hot isopropyl alcohol) was greater than 10000 µg/mL.

`O=C(CCCCCCCC(=O)NCCO[C@@H]1O[C@H](CO)[C@@H](O)[C@H](O)[C@H]1O)NCCO[C@@H]1O[C@H](CO)[C@@H](O)[C@H](O)[C@H]1O` [Example 12, N,N'-bis-[2-0-(β-D-glucopyranosyl)-ethyl]-nonanediamide] showed a solubility (physchem [3]) greater than 10000 µg/mL and a solubility (physchem [2]; dmso) greater than 10000 µg/mL.

For `CCCCC/C=C\C/C=C\C/C=C\C/C=C\CCCC(=O)NCCO[C@@H]1O[C@H](CO)[C@@H](O)[C@H](O)[C@H]1O` [Example 13, 2-0-(β-D-glucopyranosyl)-N-arachidonoyl-aminoethanol], the solubility [1] was greater than 10000 µg/mL and the water solubility (solubility in water; result in words) was “poorly soluble”.

`CCCCCCCCCCCC(=O)NCCO[C@H]1O[C@H](CO)[C@@H](O)[C@H](O)[C@H]1O` [Example 14, 2-0-(α-D-glucopyranosyl)-N-dodecanoyl-aminoethanol] gave a solubility (physchem [3]) greater than 10000 µg/mL and a solubility (physchem [2]; ethanol and dmso) greater than 10000 µg/mL.

In the case of `C[C@]12N[C@H](Cc3ccccc31)c1ccccc12` [MK 801, reference compound], the “survived cells (%)” value (granule cells; [4]) was 66%, the “survived cells (%)” value (granule cells; compound 10 µM added 15 min after Glu removal) was 32% and the “survived cells (%)” value (granule cells; compound 10 µM added 30 min after Glu removal) was 30%. For the same molecule, the “cytoprotection against Glu neurotoxicity” value (granule cells) was “protective, at least partially, only after co-treatment”.

With “monosialoganglioside GM1 [reference compound]” the “Cell survival (%)” value (cerebellar granule cells) was 78%, the “survived cells (%)” value (granule cells; compound 100 µM added 0 min after Glu removal) was 31% and the “cytoprotection against Glu neurotoxicity” value (granule cells) was “does not show any significant action”.
